Experimental findings from patent publication US20090233921A1, “THERAPEUTIC CYCLOPENTANE DERIVATIVES” (ALLERGAN, INC., priority 2008, published 2009) are described below.

This assay has as its system lashes and adjacent hairs of patients having glaucoma. The experiment in a line: Clinical observation of lashes and adjacent hairs in glaucoma patients treated in one eye. It counts as in vivo, human. From the text:
In the course of treating patients having glaucoma, treatment may only be appropriate in one eye. […] The lash appearance on the lids of the treated eyes would have appeared quite attractive if it represented a bilateral phenomenon. As a result of its asymmetric nature, the long lashes on one side could be construed as disturbing from a cosmetic standpoint. A systemic examination was preformed as a result of the asymmetric phenomenon. It soon became apparent that this altered appearance was not an isolated finding.
The changes in the lashes were apparent on gross inspection in several patients once attention was focused on the issue. In those with light colored hair and lashes, the differences were only seen easily with the aid of the high magnification and lighting capabilities of the slit lamp biomicroscope. In the course of glaucoma follow-up examination, attention is generally immediately focused on the eye itself. As a result of the high power magnification needed only one eye is seen at a time and the eye is seen at a high enough power that the lashes are not in focus. At these higher powers, any lash asymmetry between the two eyes is not likely to be noticed except by careful systematic comparison of the lashes and adjacent hairs of the eyelids of the two eyes. […]

With `CCNC(=O)CCC/C=C\C[C@@H]1[C@@H](/C=C/[C@@H](O)CCc2ccccc2)[C@H](O)C[C@@H]1O` [bimatoprost], under “a patient treated in one eye”, the “lash appearance, treated eye versus non-treated eye” value is “longer, thicker, and fuller in the treated eye than in the non-treated eye”. Besides, the “differences in lashes and adjacent hairs of the treated side” value (all patients taking the drug on a unilateral basis for longer than 6 months) is on record as “Definite differences could be identified to varying degrees”.
